Results: ChEMBL document CHEMBL3526141, “Characterization of human liver enzymes involved in the biotransformation of boceprevir, a hepatitis C virus protease inhibitor” (Drug Metab Dispos, 2011)
One block for each compound: values may come before it.

Key:
Liver cytosol [1] = assay: (§1) Drug metabolism in human liver cytosol at 20 uM assessed as (1R,2S,5S)-N-((2R,3R)-4-amino-1-cyclobutyl-3-hydroxy-4-oxobutan-2-yl)-3-((S)-2-(3-tert-butylureido)-3,3-dimethylbutanoyl)-6,6-dimethyl-3-azabicyclo[3.1.0]hexane-2-carboxamide formation in presence of flufenamic acid by LC-MS/MS/FSA method; assay type: ADME
Liver cytosol [2] = assay: as §1, with “formation at 20 uM after 60 mins” for “formation”, “AKR inhibitor diazepam” for “flufenamic acid”; assay type: ADME; details: 1 h
Liver cytosol [3] = assay: Drug metabolism in human liver cytosol treated with 20 uM [14C]SCH 534128 assessed as 100 uM diazepam-mediated inhibition of metabolite formation LC-MS/MS/FSA method; assay type: ADME, tissue-based; design: interact cpd dose 100 uM
[4] = molecular target: T1, Aldo-keto reductase family 1 member C2 (Homo sapiens, UniProt P52895); assay: Drug metabolism in human recombinant AKR1C2 expressing HEK293 cells treated with 20 uM boceprevir assessed as 100 uM flufenamic acid-mediated inhibition of AKR1C2-mediated metabolite formation after 120 mins in presence of NADPH by LC-MS/MS/FSA method; assay type: ADME, cell-based; design: interact cpd dose 100 uM; details: hek293, 2 h
T1 sequence (P52895 whole entry): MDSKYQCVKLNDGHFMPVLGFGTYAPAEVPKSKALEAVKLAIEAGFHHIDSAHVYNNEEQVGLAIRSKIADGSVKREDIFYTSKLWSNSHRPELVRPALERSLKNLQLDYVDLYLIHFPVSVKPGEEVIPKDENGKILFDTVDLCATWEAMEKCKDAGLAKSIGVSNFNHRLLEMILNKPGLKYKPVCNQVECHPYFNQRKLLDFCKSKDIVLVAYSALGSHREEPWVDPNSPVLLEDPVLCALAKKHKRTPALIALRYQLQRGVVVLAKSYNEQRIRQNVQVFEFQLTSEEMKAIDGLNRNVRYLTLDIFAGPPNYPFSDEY

Cytochrome P450 2J2 = molecular target: T2, Cytochrome P450 2J2 (Homo sapiens, UniProt P51589); assay: Drug metabolism assessed as human CYP2J2-mediated compound formation from 5 to 20 uM [14C]boceprevir after 120 mins by LC-MS/FSA method relative to total [14C]boceprevir; assay type: ADME; details: recombinant enzyme, 2 h
T2 sequence (P51589 whole entry): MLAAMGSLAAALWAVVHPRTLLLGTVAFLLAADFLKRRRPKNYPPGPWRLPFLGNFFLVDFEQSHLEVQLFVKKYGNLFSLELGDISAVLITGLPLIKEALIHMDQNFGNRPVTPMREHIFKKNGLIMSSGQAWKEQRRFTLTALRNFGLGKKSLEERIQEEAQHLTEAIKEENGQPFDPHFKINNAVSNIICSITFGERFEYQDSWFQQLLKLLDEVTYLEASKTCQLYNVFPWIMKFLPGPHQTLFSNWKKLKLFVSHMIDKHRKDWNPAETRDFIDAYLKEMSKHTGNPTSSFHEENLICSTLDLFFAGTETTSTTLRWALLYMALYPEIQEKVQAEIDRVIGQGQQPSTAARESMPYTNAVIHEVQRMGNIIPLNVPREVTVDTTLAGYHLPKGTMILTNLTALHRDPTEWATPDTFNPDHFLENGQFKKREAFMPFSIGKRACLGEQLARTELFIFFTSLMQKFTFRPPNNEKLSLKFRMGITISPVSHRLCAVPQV

Liver cytosol [5] = assay: Drug metabolism in human liver cytosol at 20 uM assessed as (1R,2S,5S)-N-((2S,3R)-4-amino-1-cyclobutyl-3-hydroxy-4-oxobutan-2-yl)-3-((S)-2-(3-tert-butylureido)-3,3-dimethylbutanoyl)-6,6-dimethyl-3-azabicyclo[3.1.0]hexane-2-carboxamide formation in presence of pargyline by LC-MS/MS/FSA method; assay type: ADME
Liver cytosol [6] = assay: (§2) Drug metabolism in human liver cytosol at 20 uM assessed as (1R,2S,5S)-N-((2S,3R)-4-amino-1-cyclobutyl-3-hydroxy-4-oxobutan-2-yl)-3-((S)-2-(3-tert-butylureido)-3,3-dimethylbutanoyl)-6,6-dimethyl-3-azabicyclo[3.1.0]hexane-2-carboxamide formation in presence of flufenamic acid by LC-MS/MS/FSA method; assay type: ADME
[7] = as §2, with “S9 fraction” for “cytosol”, “mefenamic” for “flufenamic”; assay type: ADME, subcellular; details: s9, 20 µM
[8] = Drug metabolism in human liver S9 fraction at 20 uM assessed as (1R,2S,5S)-N-((2S,3R)-4-amino-1-cyclobutyl-3-hydroxy-4-oxobutan-2-yl)-3-((S)-2-(3-tert-butylureido)-3,3-dimethylbutanoyl)-6,6-dimethyl-3-azabicyclo[3.1.0]hexane-2-carboxamide formation in presence of pargyline by LC-MS/MS/FSA method; assay type: ADME, subcellular; details: s9, 20 µM
[9] = Drug metabolism in human liver S9 fraction at 20 uM assessed as (1R,2S,5S)-N-((2S,3R)-4-amino-1-cyclobutyl-3-hydroxy-4-oxobutan-2-yl)-3-((S)-2-(3-tert-butylureido)-3,3-dimethylbutanoyl)-6,6-dimethyl-3-azabicyclo[3.1.0]hexane-2-carboxamide formation in presence of menadione by LC-MS/MS/FSA method; assay type: ADME, subcellular; details: s9, 20 µM

Compound recovery (Liver cytosol [1]): metabolite_not_detected | Compound recovery (Liver cytosol [2]): metabolite_not_detected
Compound: CC(C)(C)NC(=O)N[C@H](C(=O)N1C[C@H]2[C@@H]([C@H]1C(=O)N[C@H](CC1CCC1)C(=O)C(N)=O)C2(C)C)C(C)(C)C

inhibition (INH) (Liver cytosol [3]): 72.9% | inhibition (INH) [4]: > 89%
Compound: CC(C)(C)NC(=O)N[C@H](C(=O)N1C[C@H]2[C@@H]([C@H]1C(=O)N[C@@H](CC1CCC1)[C@@H](O)C(N)=O)C2(C)C)C(C)(C)C

Compound recovery (Cytochrome P450 2J2): metabolite_not_detected | Compound recovery (Liver cytosol [5]): metabolite_detected | Compound recovery (Liver cytosol [6]): metabolite_not_detected | Compound recovery [7]: metabolite_not_detected | Compound recovery [8]: metabolite_detected | Compound recovery [9]: metabolite_not_detected
Compound: CC(C)(C)NC(=O)N[C@H](C(=O)N1C[C@H]2[C@@H]([C@H]1C(=O)NC(CC1CCC1)C(=O)C(N)=O)C2(C)C)C(C)(C)C (stereo not given in full) [BOCEPREVIR]
